Source: patent US20240358842A1, “PROTEIN STABILIZING COMPOUNDS CONTAINING USP7 LIGANDS” (Stablix, Inc., priority 2021, published 2024)
Where two headings read alike, the source gives them in different places.

What was measured:
USP7 CD + UBL 1-5 = biological target: T1, USP7 CD + UBL 1-5 (Homo sapiens, UniProt Q93009); assay: Surface plasmon resonance assay (SPR); type: binding
T1 construct: USP7 CD +
Method: The surface plasmon resonance experiments were performed using a Cytiva (formerly GE Healthcare) Biacore 8K equipped with a Series S Sensor Chip SA. The ligands were immobilized via a biotin-modified biotin acceptor peptide. USP7 Ligands were diluted in running buffer (HBS-P+2% DMSO; 10 mM HEPES, pH 7.4, 150 mM NaCl, 1 mM DTT, 0.05% P20, 2% DMSO) to 100 μg/mL and injected at […] until a density between 500-10,000 RU was reached on flow-cell two of each channel, and flow cell one was left blank to serve as a reference surface. Both surfaces were washed until a stable baseline was achieved then 30 startup cycles to condition the surface. To collect kinetic and steady-state binding data, the small molecule analytes were prepared in three-fold dilution series in HBS-P+2% DMSO running buffer. Analytes were injected over both flow cells at a flow rate of […] at 25° C. The complex was allowed to associate for 60 seconds and dissociate for 300 seconds. Data were collected at 10 Hz. The data were fit to a simple 1:1 interaction model global data analysis within Cytiva Biacore Insight Evaluation Software.

USP7 = USP7 (Homo sapiens, UniProt Q93009); assay: Ub-Rho cleavage assay; type: biochemical; details: Ub-Rho substrate, recombinant USP7; read-out: Ub (Rho) USP7.1 (IC50)
Chain of USP7 (Q93009 whole entry): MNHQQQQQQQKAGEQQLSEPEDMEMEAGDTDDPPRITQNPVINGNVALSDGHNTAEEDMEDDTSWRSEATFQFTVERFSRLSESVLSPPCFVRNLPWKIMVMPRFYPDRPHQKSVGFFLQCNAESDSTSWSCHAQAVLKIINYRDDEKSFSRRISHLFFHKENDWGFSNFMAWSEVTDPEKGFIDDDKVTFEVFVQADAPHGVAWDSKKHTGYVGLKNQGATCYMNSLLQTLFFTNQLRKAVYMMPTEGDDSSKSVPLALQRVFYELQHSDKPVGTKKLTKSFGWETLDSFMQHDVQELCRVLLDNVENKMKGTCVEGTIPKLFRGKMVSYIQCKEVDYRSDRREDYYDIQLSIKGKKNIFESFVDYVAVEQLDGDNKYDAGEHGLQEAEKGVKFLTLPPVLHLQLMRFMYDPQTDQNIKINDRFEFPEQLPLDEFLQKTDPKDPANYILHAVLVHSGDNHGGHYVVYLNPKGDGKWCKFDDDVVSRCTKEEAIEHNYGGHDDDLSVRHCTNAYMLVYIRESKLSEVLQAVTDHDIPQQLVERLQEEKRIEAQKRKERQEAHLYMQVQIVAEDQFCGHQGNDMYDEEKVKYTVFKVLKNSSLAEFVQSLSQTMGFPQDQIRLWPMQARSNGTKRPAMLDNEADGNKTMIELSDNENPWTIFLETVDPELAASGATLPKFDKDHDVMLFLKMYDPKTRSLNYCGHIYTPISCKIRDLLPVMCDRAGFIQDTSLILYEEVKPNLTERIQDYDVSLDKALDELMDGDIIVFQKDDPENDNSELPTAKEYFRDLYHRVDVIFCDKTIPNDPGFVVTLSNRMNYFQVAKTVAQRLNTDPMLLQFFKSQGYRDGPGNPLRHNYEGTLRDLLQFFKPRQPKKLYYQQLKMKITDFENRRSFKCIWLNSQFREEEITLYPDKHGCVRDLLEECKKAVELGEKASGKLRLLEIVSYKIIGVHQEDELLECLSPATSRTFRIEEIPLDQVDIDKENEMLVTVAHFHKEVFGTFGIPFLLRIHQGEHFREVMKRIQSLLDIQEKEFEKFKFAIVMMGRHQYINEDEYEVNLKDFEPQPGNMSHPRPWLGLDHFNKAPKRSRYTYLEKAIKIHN
Method: All fluorescence measurements were performed on a Molecular Devices FlexStation3 with excitation at 480 nm and emission 540 nm, PMT Gain: Medium, Flash Number: 10. […] Assay buffer for all measurements was 50 mM HEPES, 100 mM NaCl, 0.5 mM EDTA, 1 mM TCEP, 0.1 mg/ml BSA, 0.01% Tween-20, pH 7.8. […] Serial dilutions were made with a Mosquito HTS (SPT Labtech) nanoliter liquid handler. 200 nL of each compound in duplicate or DMSO control were transferred to the assay plate. The first two columns served as positive controls. 9.8 μl per well of USP7 working solution was added to the assay plate. Compound+Protein was incubated for 25 min at 25° C. 10 uL of Ub-Rho substrate was added per well and incubated for an additional 15 min at 25° C. Fluorescence was then measured. Percent response relative to DMSO controls was calculated in GraphPad or Scinamic, and the data was fitted to a non-linear regression to determine IC50 values.

[1] = steady-state KD, read-out: SPR USP7 CD + UBL 1-5 (KD_ss)
[2] = kinetic KD, read-out: SPR USP7 CD + UBL 1-5 (KD_kinetic)

T1 sequence (Q93009 208-1102 limits assumed): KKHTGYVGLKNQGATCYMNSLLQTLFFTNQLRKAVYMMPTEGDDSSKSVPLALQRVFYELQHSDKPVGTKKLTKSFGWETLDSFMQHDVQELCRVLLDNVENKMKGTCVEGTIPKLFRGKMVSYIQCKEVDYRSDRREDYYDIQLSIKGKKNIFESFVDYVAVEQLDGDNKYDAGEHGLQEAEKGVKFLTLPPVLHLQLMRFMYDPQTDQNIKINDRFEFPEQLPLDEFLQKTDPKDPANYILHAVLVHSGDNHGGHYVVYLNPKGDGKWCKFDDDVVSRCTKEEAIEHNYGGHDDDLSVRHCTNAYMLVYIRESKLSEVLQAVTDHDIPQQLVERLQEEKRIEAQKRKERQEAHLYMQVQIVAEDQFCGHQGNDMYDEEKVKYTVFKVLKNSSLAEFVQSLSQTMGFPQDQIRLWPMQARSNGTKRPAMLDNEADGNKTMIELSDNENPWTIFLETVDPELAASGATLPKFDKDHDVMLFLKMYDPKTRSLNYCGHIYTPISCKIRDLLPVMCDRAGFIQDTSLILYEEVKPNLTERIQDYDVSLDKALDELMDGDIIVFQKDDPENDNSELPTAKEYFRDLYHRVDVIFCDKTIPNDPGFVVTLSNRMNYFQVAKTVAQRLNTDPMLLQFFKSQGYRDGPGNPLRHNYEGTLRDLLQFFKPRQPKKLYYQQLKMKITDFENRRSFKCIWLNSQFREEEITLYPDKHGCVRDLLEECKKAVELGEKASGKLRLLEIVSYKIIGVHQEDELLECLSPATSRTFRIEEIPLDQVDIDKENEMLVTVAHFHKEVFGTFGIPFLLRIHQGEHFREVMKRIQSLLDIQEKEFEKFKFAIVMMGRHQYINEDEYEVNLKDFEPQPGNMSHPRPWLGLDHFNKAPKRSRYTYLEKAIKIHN

Kd (USP7 CD + UBL 1-5; [1])	IC50 (USP7)	Kd (USP7 CD + UBL 1-5; [2])	SMILES
1 to 100 µM	1 to 100 µM		CCc1c(-c2ccc(C(=O)NC)nc2)ccc(NCCN=[N+]=[N-])c1-c1ccc(O)cc1 [U70]
1 to 100 µM	> 100 µM		CN1CCCn2nc(C(=O)Nc3nc4ccc(N(C5CCNC5)S(=O)(=O)c5cccs5)cc4s3)cc2C1 (stereo not shown) [U120]
1 to 100 µM	> 100 µM		CN1CCCn2nc(C(=O)Nc3nc4ccc(S(=O)(=O)NC5CCNC5)cc4s3)cc2C1 (stereo not shown) [U127]
1 to 100 µM	> 100 µM		Cc1cc(Cl)cc(-c2ccnc3cc(CN4C(=O)CCC4=O)sc23)c1OC1CCN(C(=O)CCCCCCCCNC(=O)OC(C)(C)C)CC1 [U31]
1 to 100 µM	1 to 100 µM		CCc1c(-c2ccc(C(=O)NCCCNC(=O)CCCCC(=O)OC(C)(C)C)nc2)cnc(N)c1-c1ccc(O)cc1 [U49]
< 1 µM	< 1 µM		Cc1cc(Cl)cc(-c2ccnc3cc(CN4C(=O)CCC4=O)sc23)c1OC1CCN(CCCNC(=O)CCNC(=O)OC(C)(C)C)CC1 [U39]
1 to 100 µM	> 100 µM		NCc1cc(Nc2nc3ccc(NS(=O)(=O)c4cccs4)cc3s2)ncn1 [U83]
1 to 100 µM	1 to 100 µM		CCc1c(-c2ccc(C(=O)NC)nc2)cnc(CNC(=O)OC(C)(C)C)c1-c1ccc(O)cc1 [U47]
1 to 100 µM	1 to 100 µM		Cc1cc(Cl)cc(-c2ccnc3cc(CN4C(=O)CCC4=O)sc23)c1OC1CCN(C(=O)CCOCCOCCNC(=O)OC(C)(C)C)CC1 [U33]
< 1 µM	< 1 µM		CCc1c(-c2ccc(C(=O)NCCN)nc2)cnc(N)c1-c1ccc(O)cc1 [U61]
1 to 100 µM	1 to 100 µM		Cc1cc(Cl)cc(-c2ccnc3cc(CN4C(=O)CCC4=O)sc23)c1OC1CCN(C(=O)CCNC(=O)OC(C)(C)C)CC1 [U13]
1 to 100 µM	> 100 µM		CN1CCCn2nc(C(=O)Nc3nc4ccc(N(CC5CCNC5)S(=O)(=O)c5cccs5)cc4s3)cc2C1 (stereo not shown) [U115]
1 to 100 µM	1 to 100 µM		CCc1c(-c2ccc3[nH]ncc3c2)cnc(C=O)c1-c1ccc(O)cc1 [U65]
> 100 µM	> 100 µM		CN1CCCn2nc(C(=O)Nc3nc4ccc(NS(=O)(=O)c5ccncc5)cc4s3)cc2C1 [U109]
1 to 100 µM	> 100 µM		O=C(Nc1nc2ccc(NS(=O)(=O)c3cccs3)cc2s1)c1ccco1 [U68]
1 to 100 µM	1 to 100 µM		CCc1c(-c2ccc3n[nH]cc3c2)cnc(CNC(=O)OC(C)C)c1-c1ccc(O)cc1 [U76]
1 to 100 µM	> 100 µM		CN1CCC(C(=O)Nc2nc3ccc(NS(=O)(=O)c4cn5c(n4)CCC5)cc3s2)CC1 [U91]
1 to 100 µM	> 100 µM		CN1CCCn2nc(C(=O)Nc3nc4ccc(NS(=O)(=O)c5cccnc5)cc4s3)cc2C1 [U103]
1 to 100 µM	> 100 µM		NCc1cc(Nc2nc3ccc(NS(=O)(=O)c4cn5c(n4)CCC5)cc3s2)ncn1 [U100]

Kd (USP7 CD + UBL 1-5; [1])	IC50 (USP7)	Kd (USP7 CD + UBL 1-5; [2])	SMILES
1 to 100 µM	1 to 100 µM		CCc1c(-c2ccc(C(=O)NC)nc2)ccc(CNCCNC(=O)OC(C)(C)C)c1-c1ccc(O)cc1 [U43]
1 to 100 µM	1 to 100 µM		CCc1c(-c2ccc(C(=O)NCCCNC(=O)CCCCNC(=O)OC(C)(C)C)nc2)cnc(N)c1-c1ccc(O)cc1 [U45]
	< 1 µM	< 1 µM	C[C@H](CC(=O)N1CCC(O)(Cn2cnc3c(-c4ccc(CNC(=O)CCNC(=O)OC(C)(C)C)cc4)n(C)nc3c2=O)CC1)c1ccccc1 [U134]
1 to 100 µM	> 100 µM		CC(C)(C)OC(=O)N1CCC(C(=O)Nc2nc3ccc(N(S(=O)(=O)c4cccs4)S(=O)(=O)c4cccs4)cc3s2)CC1 [U66]
1 to 100 µM	> 100 µM		CCc1c(-c2ccc(C(=O)NCCCNC(=O)CCCCCCCNC(=O)OC(C)(C)C)nc2)cnc(N)c1-c1ccc(O)cc1 [U52]
1 to 100 µM	1 to 100 µM	1 to 100 µM	CCc1c(-c2ccc(C(=O)NCCOCCOCCOCCN=[N+]=[N-])nc2)cnc(N)c1-c1ccc(O)cc1 [U10]
1 to 100 µM	1 to 100 µM		CCc1c(-c2ccc3c(cnn3CCN)c2)cnc(CNC(=O)OC(C)(C)C)c1-c1ccc(O)cc1 [U82]
> 100 µM	1 to 100 µM		CCn1cc(S(=O)(=O)Nc2ccc3nc(NC(=O)C4CCN(C)CC4)sc3c2)cn1 [U73]
1 to 100 µM	> 100 µM		CN1CCCn2nc(C(=O)Nc3nc4ccc(NS(=O)(=O)c5cn6c(n5)CCC6)cc4s3)cc2C1 [U102]
	< 1 µM	< 1 µM	C[C@H](CC(=O)N1CCC(O)(Cn2cnc3c(-c4ccc(CNC(=O)CCCCCCNC(=O)OC(C)(C)C)cc4)n(C)nc3c2=O)CC1)c1ccccc1 [U132]
1 to 100 µM	1 to 100 µM		Nc1ncc(-c2ccc(O)cc2)cc1-c1ccc(O)cc1 [U24]
< 1 µM	< 1 µM		Cc1cc(Cl)cc(-c2ccnc3cc(CN4C(=O)CCC4=O)sc23)c1OC1CCN(CCCNC(=O)CCCCCCNC(=O)OC(C)(C)C)CC1 [U40]
1 to 100 µM	1 to 100 µM		CCc1c(-c2ccc3[nH]ncc3c2)cnc(CN)c1-c1ccc(O)cc1 [U63]
> 100 µM	> 100 µM		CN1CCCn2nc(C(=O)Nc3nc4ccc(NS(=O)(=O)c5cnccn5)cc4s3)cc2C1 [U106]
1 to 100 µM	1 to 100 µM	1 to 100 µM	C[C@H](CC(=O)N1CCC(O)(Cn2cnc3cc(Br)ccc3c2=O)CC1)c1ccccc1 [U3]
1 to 100 µM	1 to 100 µM		C[C@H](CC(=O)N1CCC(O)(CN2C=NC3C(C#CCOCCNC(=O)OC(C)(C)C)=CSC3C2=O)CC1)c1ccccc1 (stereo partly shown) [U20]
> 100 µM	> 100 µM		CN1CCC(C(=O)Nc2nc3ccc(NS(=O)(=O)N4CC(F)C4)cc3s2)CC1 [U89]
> 100 µM	> 100 µM		CN1CCCn2nc(C(=O)Nc3nc4ccc(N(CCN)S(=O)(=O)c5cccs5)cc4s3)cc2C1 [U108]
	< 1 µM	< 1 µM	C[C@H](CC(=O)N1CCC(O)(Cn2cnc3c(-c4ccc(CNC(=O)CCCCCCCNC(=O)OC(C)(C)C)cc4)n(C)nc3c2=O)CC1)c1ccccc1 [U133]

Kd (USP7 CD + UBL 1-5; [1])	IC50 (USP7)	Kd (USP7 CD + UBL 1-5; [2])	SMILES
1 to 100 µM	1 to 100 µM		CCc1c(-c2ccc(C(=O)NC)cc2)cnc(N)c1-c1ccc(O)cc1 [U11]
1 to 100 µM	> 100 µM		CN1CCCn2nc(C(=O)Nc3nc4ccc(N[S+]([O-])c5cccs5)cc4s3)cc2C1 (stereo not shown) [U113]
1 to 100 µM	> 100 µM		O=C(Nc1nc2ccc(NS(=O)(=O)c3cccs3)cc2s1)C1CCNCC1 [U67]
1 to 100 µM	1 to 100 µM		CCc1c(-c2ccc(C(=O)NCCCNC(=O)CCOCCOCCOCCOCCNC(=O)OC(C)(C)C)nc2)cnc(N)c1-c1ccc(O)cc1 [U58]
1 to 100 µM	> 100 µM		CCc1c(-c2ccc(C(=O)NC)cc2)cnc(NC(=O)CN)c1-c1ccc(O)cc1 [U48]
> 100 µM	> 100 µM		CN1CCN(C(=O)Nc2nc3ccc(NS(=O)(=O)c4cccs4)cc3s2)CC1=O [U123]
> 100 µM	> 100 µM		CN1CCC(C(=O)Nc2nc3ccc(NS(=O)(=O)c4cnc(Cl)s4)cc3s2)CC1 [U95]
1 to 100 µM	1 to 100 µM	1 to 100 µM	CCc1c(-c2ccc(C(=O)NCCCNC(=O)OC(C)(C)C)nc2)cnc(N)c1-c1ccc(O)cc1 [U7]
1 to 100 µM	> 100 µM		CN1CCC(C(=O)Nc2nc3ccc(NS(=O)(=O)c4cnccn4)cc3s2)CC1 [U93]
> 100 µM	> 100 µM		O=C(O)c1ccnc(Nc2nc3ccc(NS(=O)(=O)c4cccs4)cc3s2)n1 [U85]
1 to 100 µM	1 to 100 µM		Cc1cc(Cl)cc(-c2ccnc3cc(CN4C(=O)CCC4=O)sc23)c1OC1CCN(C(=O)CCOCCNC(=O)OC(C)(C)C)CC1 [U32]
1 to 100 µM	1 to 100 µM		CCc1c(-c2ccc(O)cc2)cnc(C=O)c1-c1ccc(O)cc1 [U64]
< 1 µM	< 1 µM		C[C@H](CC(=O)N1CCC(O)(Cn2cnc(NCCN3CCN(CCN)CC3)cc2=O)CC1)c1ccccc1 [U37]
1 to 100 µM	1 to 100 µM		CCc1c(-c2ccc3[nH]ncc3c2)cnc(CNC(=O)OC(C)(C)C)c1-c1ccc(O)cc1 [U60]
1 to 100 µM	1 to 100 µM		CCc1c(-c2ccc(C(=O)NCCCNC(=O)CCOCCOCCOCCNC(=O)OC(C)(C)C)nc2)cnc(N)c1-c1ccc(O)cc1 [U57]
1 to 100 µM	> 100 µM		NCc1ccc(Nc2nc3ccc(NS(=O)(=O)c4cccs4)cc3s2)nc1 [U87]
< 1 µM	< 1 µM		C[C@H](CC(=O)N1CCC(O)(Cn2cnc(NCCN3CCN(CCN=[N+]=[N-])CC3)cc2=O)CC1)c1ccccc1 [U69]
1 to 100 µM	> 100 µM		CN1CCC(C(=O)Nc2nc3ccc(NS(=O)(=O)CC4CC4)cc3s2)CC1 [U74]
